Measurements published in PMC4369186 (European journal of pharmacology, 2015).
Like-named read-outs stand apart in the source and are kept apart here.

Molecular target: T1, hVAChT (Homo sapiens, UniProt Q16572)
T1 sequence (Q16572 1-532): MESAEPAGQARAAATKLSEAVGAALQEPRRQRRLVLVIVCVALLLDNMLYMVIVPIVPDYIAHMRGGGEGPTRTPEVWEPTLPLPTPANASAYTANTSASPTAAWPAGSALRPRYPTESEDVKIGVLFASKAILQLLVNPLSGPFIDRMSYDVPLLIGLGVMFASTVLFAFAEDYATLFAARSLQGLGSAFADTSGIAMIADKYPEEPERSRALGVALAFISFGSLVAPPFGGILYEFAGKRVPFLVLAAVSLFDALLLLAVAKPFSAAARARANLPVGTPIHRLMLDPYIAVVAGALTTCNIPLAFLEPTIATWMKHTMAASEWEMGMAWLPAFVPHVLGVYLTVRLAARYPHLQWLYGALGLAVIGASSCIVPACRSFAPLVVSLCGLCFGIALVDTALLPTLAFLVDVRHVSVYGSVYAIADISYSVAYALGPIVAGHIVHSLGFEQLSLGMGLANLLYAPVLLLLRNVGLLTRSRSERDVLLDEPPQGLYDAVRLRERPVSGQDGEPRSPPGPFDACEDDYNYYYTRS
Assay: Competitive binding assay with
Settings: for inhibition of (-)-[^3H]TZ659 binding to VAChT: competitive binding studies, other CNS receptor ligands

[1] = radioligand (-)-[^3H]TZ659 2 nM, test ligands 0.1 nM to 10 μM, 60 min, 25 °C

In the case of CC(C)=CCN1CC[C@]2(C)c3cc(O)ccc3C[C@H]1[C@H]2C [(+)-Pentazocine], the Ki is reported as greater than 1 µM and the “inhibition of (-)-[^3H]TZ659 binding to VAChT” value (shortened to “inhibition”) is reported as “No inhibition”.
In the case of COc1cc2c(cc1OC)[C@H]1C[C@@H](O)[C@H](CC(C)C)CN1CC2 [DTBZ], the “inhibition” value is reported as “No inhibition” and the Ki [1] is reported as greater than 1 µM.
COc1cc2c(cc1OC)CN(CCCCNC(=O)c1cc(C)ccc1OCCF)CC2 [ISO-1] was tested, and the “inhibition” value was “No inhibition” and the Ki [1] was greater than 1 µM.
With Cn1cc(-c2ccncc2)c(-c2ccc(OCc3ccc4ccccc4n3)cc2)n1 [MP-10] the “inhibition” value was “No inhibition” and the Ki [1] was greater than 1 µM.
In the case of CCc1cc(Cl)c(OC)c(C(=O)NC[C@@H]2CCCN2CC)c1O [S-(-)-Eticlopride], the “inhibition” value is reported as “No inhibition” and the Ki [1] is reported as greater than 1 µM.
In the case of COc1ccccc1N1CCN(CC(C(=O)NC(C)(C)C)c2ccccc2)CC1 (stereo not drawn) [WAY-100135], the “inhibition” value is reported as “No inhibition” and the Ki [1] is reported as greater than 1 µM.
